Results published in ChEMBL document CHEMBL1149470, “Identification and structure-based optimization of novel dihydropyrones as potent HCV RNA polymerase inhibitors” (Bioorg Med Chem Lett, 2006).
Activity calls are given as the source filed them. The rule behind the calls is not given here.

System: Hepatitis C virus
Assay: Antiviral activity against HCV 1b in Huh7 cell line upto 10 uM by replicon assay
Format: functional, cell-based
Details: Hepacivirus hominis; genotype 1b; Huh-7

SMILES | Activity
Cc1cc(SC2=C(O)OC(CCc3ccc(O)cc3)(C3CCCC3)CC2=O)c(C(C)(C)C)cc1N (configuration not stated) | inactive
CCCC1(CCc2ccc(OC)cc2)CC(=O)CC(=O)O1 (configuration not stated) | inactive
COc1ccc(CCC2(C3CCCC3)CC(=O)CC(=O)O2)cc1 (configuration not stated) | inactive
CCOc1ccc(CCC2(C3CCCC3)CC(=O)CC(=O)O2)cc1 (configuration not stated) | inactive
COc1ccc(CCC2(C3CCCC3)CC(=O)CC(=O)O2)cc1F (configuration not stated) | inactive
O=C1CC(=O)OC(CCc2ccc(O)cc2)(C2CCC2)C1 (configuration not stated) | inactive
COc1ccc(CCC2(C3CCCC3)CC(=O)C(Sc3nncn3C)=C(O)O2)cc1Cl (configuration not stated) | inactive
O=C1CC(=O)OC(CCc2ccc(O)cc2)(C2CCCC2)C1 (configuration not stated) | inactive
CCc1cccc(CCC2(C3CCCC3)CC(=O)CC(=O)O2)c1 (configuration not stated) | inactive
COc1ccc(CCC2(C3CCCC3)CC(=O)C(Sc3nccn3C)=C(O)O2)cc1Cl (configuration not stated) | inactive
CCOc1ccc(CCC2(C3CCCC3)CC(=O)CC(=O)O2)cc1F (configuration not stated) | inactive
O=C1CC(=O)OC(CCc2cccc(Cl)c2)(C2CCCC2)C1 (configuration not stated) | inactive
Cc1cccc(CCC2(C3CCCC3)CC(=O)CC(=O)O2)c1 (configuration not stated) | inactive
O=C1CC(=O)OC(CCc2ccccc2)(C2CCCC2)C1 (configuration not stated) | inactive
CC(C)c1ccc(CCC2(C3CCCC3)CC(=O)CC(=O)O2)cc1 (configuration not stated) | inactive
O=C1CC(=O)OC(CCc2ccc(O)cc2)(C2CCCCC2)C1 (configuration not stated) | inactive
COc1ccc(CCC2(C3CCCC3)CC(=O)CC(=O)O2)cc1Cl (configuration not stated) | inactive
COc1ccc(CCC2(C3CCCC3)CC(=O)C(Sc3ccc(O)cc3)=C(O)O2)cc1Cl (configuration not stated) | inactive
CC(C)Oc1ccc(CCC2(C3CCCC3)CC(=O)CC(=O)O2)cc1F (configuration not stated) | inactive
COc1ccc(CCC2(C3CCCC3)CC(=O)C(Sc3ccccc3)=C(O)O2)cc1Cl (configuration not stated) | inactive
CC(C)Oc1ccc(CCC2(C3CCCC3)CC(=O)CC(=O)O2)cc1 (configuration not stated) | inactive
CC(C)c1cccc(CCC2(C3CCCC3)CC(=O)CC(=O)O2)c1 (configuration not stated) | inactive
CC1(CCc2ccc(O)cc2)CC(=O)CC(=O)O1 (configuration not stated) | inactive
COc1ccc(CCC2(C3CCCC3)CC(=O)C(Sc3nnnn3C)=C(O)O2)cc1Cl (configuration not stated) | inactive

Target: RNA-directed RNA polymerase (Hepacivirus hominis, UniProt O39930)
Sequence (O39930 whole entry): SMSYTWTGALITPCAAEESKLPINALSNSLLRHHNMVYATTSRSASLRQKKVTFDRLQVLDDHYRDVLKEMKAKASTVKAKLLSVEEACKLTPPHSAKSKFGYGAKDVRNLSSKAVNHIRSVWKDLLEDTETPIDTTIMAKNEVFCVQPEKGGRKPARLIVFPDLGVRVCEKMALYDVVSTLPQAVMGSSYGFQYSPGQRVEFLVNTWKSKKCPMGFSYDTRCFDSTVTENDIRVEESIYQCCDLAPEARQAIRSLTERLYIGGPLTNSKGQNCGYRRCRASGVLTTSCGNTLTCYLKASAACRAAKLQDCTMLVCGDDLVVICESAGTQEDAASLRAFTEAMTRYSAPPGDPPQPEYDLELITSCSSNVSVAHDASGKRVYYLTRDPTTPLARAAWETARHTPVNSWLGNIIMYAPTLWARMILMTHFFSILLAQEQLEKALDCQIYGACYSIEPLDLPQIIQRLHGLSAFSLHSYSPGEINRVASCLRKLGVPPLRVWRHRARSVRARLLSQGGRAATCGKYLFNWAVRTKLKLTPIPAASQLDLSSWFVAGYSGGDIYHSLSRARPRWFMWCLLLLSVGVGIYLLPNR
Assay: Inhibitory activity against HCV 1b BK NS5B deltaC21 RNA polymerase
Set-up: species or system Hepatitis C virus subtype 1b
Details: not given

SMILES | IC50 [nM]
CCCC1(CCc2ccc(OC)cc2)CC(=O)CC(=O)O1 (configuration not stated) | > 50000
COc1ccc(CCC2(C3CCCC3)CC(=O)CC(=O)O2)cc1 (configuration not stated) | 9700
O=C1CC(=O)OC(CCc2ccc(O)cc2)(C2CCC2)C1 (configuration not stated) | 93000
O=C1CC(=O)OC(CCc2ccc(O)cc2)(C2CCCC2)C1 (configuration not stated) | 8200
CCc1cccc(CCC2(C3CCCC3)CC(=O)CC(=O)O2)c1 (configuration not stated) | 3600
O=C1CC(=O)OC(CCc2cccc(Cl)c2)(C2CCCC2)C1 (configuration not stated) | 5000
Cc1cccc(CCC2(C3CCCC3)CC(=O)CC(=O)O2)c1 (configuration not stated) | 23000
O=C1CC(=O)OC(CCc2ccccc2)(C2CCCC2)C1 (configuration not stated) | 48000
CC(C)c1ccc(CCC2(C3CCCC3)CC(=O)CC(=O)O2)cc1 (configuration not stated) | 4300
O=C1CC(=O)OC(CCc2ccc(O)cc2)(C2CCCCC2)C1 (configuration not stated) | 52000
CC1(CCc2ccc(O)cc2)CC(=O)CC(=O)O1 (configuration not stated) | > 100000

The next lines start with the values.

IC50 [nM] | SMILES
2900 | CCOc1ccc(CCC2(C3CCCC3)CC(=O)CC(=O)O2)cc1 (configuration not stated)
1800 | CC(C)c1cccc(CCC2(C3CCCC3)CC(=O)CC(=O)O2)c1 (configuration not stated)
1700 | CC(C)Oc1ccc(CCC2(C3CCCC3)CC(=O)CC(=O)O2)cc1 (configuration not stated)
1000 | COc1ccc(CCC2(C3CCCC3)CC(=O)CC(=O)O2)cc1Cl (configuration not stated)
930 | Cc1cc(SC2=C(O)OC(CCc3ccc(O)cc3)(C3CCCC3)CC2=O)c(C(C)(C)C)cc1N (configuration not stated)
890 | COc1ccc(CCC2(C3CCCC3)CC(=O)CC(=O)O2)cc1F (configuration not stated)
790 | CCOc1ccc(CCC2(C3CCCC3)CC(=O)CC(=O)O2)cc1F (configuration not stated)
560 | COc1ccc(CCC2(C3CCCC3)CC(=O)C(Sc3ccccc3)=C(O)O2)cc1Cl (configuration not stated)
280 | COc1ccc(CCC2(C3CCCC3)CC(=O)C(Sc3nnnn3C)=C(O)O2)cc1Cl (configuration not stated)
140 | COc1ccc(CCC2(C3CCCC3)CC(=O)C(Sc3nccn3C)=C(O)O2)cc1Cl (configuration not stated)
130 | COc1ccc(CCC2(C3CCCC3)CC(=O)C(Sc3ccc(O)cc3)=C(O)O2)cc1Cl (configuration not stated)
38 | COc1ccc(CCC2(C3CCCC3)CC(=O)C(Sc3nncn3C)=C(O)O2)cc1Cl (configuration not stated)
